Results from patent US8557603B2, “Synthetic peptides, methods and kits for diagnosing autoimmune diseases” (FlySun Development Co. Ltd., priority 2009, dated 2013).

Test system: IgA autoantibodies of patients with acute HSP
Assay: ELISA detection of IgA anti-β2-GPI-derived peptides antibodies
Assay type: binding, human
Settings: for binding between IgA derived from 7 patients with acute HSP and the synthetic peptide: IgA1-7 at 10 (g/ml), n=7, OD higher than positive control (β2-GPI) regarded as significant, FIG. 8; for plasma level of IgA anti-β2-GPI peptide antibodies in children with acute HSP compared with healthy subjects: plasma 1:50, peptide coated at 10 (g/ml), expressed as OD, p<0.0001
Procedure: Circulating IgA immunoglobulins were isolated from 7 plasma samples positive for both CL and β2GPI by use of a commercial kit, Immobilized Jacalin (PIERCE, USA, USA), which isolates serum-circulating IgA1 by galactose-binding lectin.
Briefly, 96-well high binding plates (Costar, Cambridge, Mass., USA) are coated with human β-2-GPI peptides 1-15 at a concentration of 10 (g/ml in Tris-buffered saline (TBS, 0.05 M Tris-HCl and NaCl, PH 7.5). After incubating overnight at 4° C., plates are blocked with TBS containing 0.3% gelatin. Then, plasma samples (1:50 for IgA), and IgA fraction from patients (indicated concentrations) in TBS/0.1% gelatin were distributed into wells in duplicate and incubated for 1.5 hours at room temperature. A pooled normal human IgA (Jackson ImmunoResearch, West Grove, Pa., USA) will be used as negative controls at the same concentrations. After washing with TBS, bound human […] were detected with HRP-conjugated goat anti-human IgA (BioSource International, Camarillo, Calif., USA), and the peroxidase substrate tetramethylbenzidine (Kirkegaard & Perry Laboratories, Gaithersburg, Md., USA). Results were read at a wavelength of 450 nm against a background of 650 nm with a Thermomax plate reader (Molecular Devices Inc., Sunnyvale, Calif., USA).

| Substance | binding between IgA derived from 7 patients with acute HSP and the synthetic peptide | plasma level of IgA anti-β2-GPI peptide antibodies in children with acute HSP compared with healthy subjects (FIGS. 7, 8 and 9) | binding strength among the synthetic peptides (IgA anti-peptide antibodies, children with acute HSP, FIGS. 7, 8 and 9) |
| --- | --- | --- | --- |
| H2N-FKNGMLHGDKVSFFCKNKEK-COOH (H-FKNGMLHGDKVSFFCKNKEK-OH; listed as Homo sapiens) [P12, synthetic β2-GPI-derived peptide, residues 286-305] | significant binding | significantly higher |  |
| H2N-KATFGCHDGYSLDGPEEIECTKLGNWSAMPSCKASCKVPVKKATVVYQGERVKIQEK-COOH (H-KATFGCHDGYSLDGPEEIECTKLGNWSAMPSCKASCKVPVKKATVVYQGERVKIQEK-OH; cysteine pairing not given here; listed as Homo sapiens) [P11, synthetic β2-GPI-derived peptide, residues 229-285] | significant binding | significantly higher |  |
| H2N-KPGYVSRGGMRKFICPLTGLWPINTLK-COOH (H-KPGYVSRGGMRKFICPLTGLWPINTLK-OH; listed as Homo sapiens) [P3, synthetic β2-GPI-derived peptide, residues 52-78] | significant binding | significantly higher | most significant |
| H2N-KWSPELPVCAPIICPPPSIPTFATLRVYK-COOH (H-KWSPELPVCAPIICPPPSIPTFATLRVYK-OH; cysteine pairing not given here; listed as Homo sapiens) [P7, synthetic β2-GPI-derived peptide, residues 129-157] | significant binding | significantly higher |  |
| H2N-RYTTFEYPNTISFSCNTGFYLNGADSAK-COOH (H-RYTTFEYPNTISFSCNTGFYLNGADSAK-OH; listed as Homo sapiens) [P5, synthetic β2-GPI-derived peptide, residues 96-123] | significant binding | significantly higher |  |
